Source: patent US8263622B2, “Fused-ring derivative and medical application of same” (Kissei Pharmaceutical Co., Ltd., priority 2008, dated 2012)
pIC50: −log10 of the molar value.

Tests used:
[1] = target: T1, Xanthine oxidase (from bovine milk, Sigma) (Bos taurus, UniProt P80457); assay: Xanthine oxidase inhibitory activity; type: biochemical; details: xanthine substrate, absorbance at 290 nm, 10 minutes at room temperature
T1 construct: Xanthine oxidase (from bovine milk, Sigma); purchased Sigma; host or cells: bovine milk
Procedure: (1) Preparation of Test Compounds
Test compounds were dissolved in DMSO (Wako) at 40 mM concentration and then diluted to intended concentrations with phosphate-buffered saline (PBS).
(2) Method for Measurement
Xanthine oxidase (from bovine milk, Sigma) was prepared with phosphate-buffered saline (PBS) at 0.02 units/mL, and then the solution was added to 96 well plates at 50 μL/well. In addition, test compounds diluted with PBS were added at 50 μL/well. Xanthine (Wako) at 200 μM prepared with PBS was added at 100 μL/well, and the reaction was measured for 10 minutes at room temperature. Absorbance at 290 nm was measured using a microplate reader SpectraMax Plus 384 (Molecular device). The absorbance under a condition without xanthine is 0%, and control without test compounds is 100%. Fifty % inhibitory concentration (IC50) of test compounds was calculated (Table 11). Ex. No. in the table indicates example number.

human URAT1 = target: T2, human URAT1 (Homo sapiens, UniProt Q96S37); assay: Inhibitory activity of uric acid transport with human URAT1 expressing cells; type: cell-based; details: COS-7; concentration of 100 μM; 14C-uric acid uptake (20 μM) in COS7 cells transiently expressing human URAT1, 5 minutes, 37° C.; read-out: Percent inhibition
T2 construct: expressed in transfected cells; host or cells: COS7 cells (RIKEN CELL BANK RCB0539), transient, pcDNA3.1
T2 sequence (Q96S37 1-553): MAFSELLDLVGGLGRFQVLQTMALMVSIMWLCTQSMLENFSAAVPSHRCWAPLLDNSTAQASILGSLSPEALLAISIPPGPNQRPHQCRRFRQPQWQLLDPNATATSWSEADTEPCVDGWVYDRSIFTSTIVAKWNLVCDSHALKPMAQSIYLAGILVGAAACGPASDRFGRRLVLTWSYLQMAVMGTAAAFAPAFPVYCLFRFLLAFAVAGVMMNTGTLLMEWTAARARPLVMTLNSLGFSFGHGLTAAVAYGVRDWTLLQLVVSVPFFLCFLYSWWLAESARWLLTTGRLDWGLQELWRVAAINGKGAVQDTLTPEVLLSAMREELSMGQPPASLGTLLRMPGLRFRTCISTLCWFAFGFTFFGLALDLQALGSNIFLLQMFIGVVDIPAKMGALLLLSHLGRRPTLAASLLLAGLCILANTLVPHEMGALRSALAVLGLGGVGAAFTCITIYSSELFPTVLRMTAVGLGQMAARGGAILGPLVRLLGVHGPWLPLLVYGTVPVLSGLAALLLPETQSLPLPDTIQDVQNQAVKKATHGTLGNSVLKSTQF
Procedure: (1) Preparation of Transiently Human URAT1 Expressing Cells
Full length human URAT1 cDNA (NCBI Accession No. NM_144585) was subcloned into expression vector, pcDNA3.1 (Invitrogen). Human URAT1 expression vector was transfected into COS7 cells (RIKEN CELL BANK RCB0539) using Lipofectamine 2000 (Invitrogen). COS7 cells were seeded in collagen-coated 24 well plates (Japan Becton Dickinson) at 90-95% confluency and cultured in D-MEM culture medium (Invitrogen) containing 10% fetal bovine serum (Sanko Junyaku) for 2 hours at 37° C. under the condition of 5% CO2. For 1 well, 2 μL of Lipofectamine 2000 was diluted in 50 μL of OPTI-MEM (Invitrogen) and allowed to stand at room temperature for 7 minutes (hereinafter referred to as Lipo2000-OPTI). For 1 well, 0.8 μg of human URAT1 expression vector was diluted in 50 μL of OPTI-MEM (Invitrogen) and combined gently with Lipo2000-OPTI. After standing at room temperature for 25 minutes, the mixture was added to COS7 cells at 100 μL/well. Furthermore, COS7 cells were cultured for 2 days at 37° C. under the condition of 5% CO2 and used for measuring inhibitory activity on the uptake.
(2) Preparation of Test Compounds
Test compounds were dissolved in DMSO (Wako) at 10 mM concentration and then diluted to 2 times higher concentration than intended with pre-treatment buffer (125 mM sodium gluconate, 4.8 mM potassium gluconate, 1.2 mM potassium dihydrogen phosphate, 1.2 mM magnesium sulfate, 1.3 mM calcium gluconate, 5.6 mM glucose, 25 mM Hepes, pH 7.4). Pre-treatment buffer without test compounds was used for control. In addition, an equal volume of pre-treatment buffer containing ^14C-labeled uric acid (American Radiolabeled Chemicals, Inc.) was added to test compounds and control, and finally assay buffer including 20 μM uric acid was prepared.
(3) Method for Measurement
All tests were performed on hot-plate at 37° C. Pre-treatment buffer and assay buffer were incubated at 37° C. and then used for assays. Medium was removed from plates, and 700 μL of pre-treatment buffer was added, and the cells were pre-incubated for 10 minutes. After repeating same step, pre-treatment buffer was removed, and assay buffer was added at 400 μL/well. The uptake reaction was carried out for 5 minutes. After terminating the reaction, assay buffer was rapidly removed, and the cells were washed twice with addition of ice-cold pre-treatment buffer at 1.2 mL/well. Then, the cells were lysed by addition of 0.2N sodium hydroxide at 300 μL/well. The lysed solutions were transferred into Picoplate (PerkinElmer), and Microscinti 40 (PerkinElmer) was added at 600 μL/well. After mixing, the radioactivity was counted in a liquid scintillation counter (PerkinElmer). The radioactivity in COS7 cells not transfected with URAT1 expression vector was also counted under the same condition as control. […] As a result, it was shown that all Examples 2, 6, 7, 12, 13, 15, 22 and 31 have over 80% inhibition in a concentration of 100 μM. Percent inhibition (%)=[1−(B−C)/(A−C)]×100 A: Radioactivity in control B: Radioactivity in the case of addition of test compounds C: Radioactivity in COST cells not transfected with URAT1 expression vector

T1 sequence (P80457 whole entry): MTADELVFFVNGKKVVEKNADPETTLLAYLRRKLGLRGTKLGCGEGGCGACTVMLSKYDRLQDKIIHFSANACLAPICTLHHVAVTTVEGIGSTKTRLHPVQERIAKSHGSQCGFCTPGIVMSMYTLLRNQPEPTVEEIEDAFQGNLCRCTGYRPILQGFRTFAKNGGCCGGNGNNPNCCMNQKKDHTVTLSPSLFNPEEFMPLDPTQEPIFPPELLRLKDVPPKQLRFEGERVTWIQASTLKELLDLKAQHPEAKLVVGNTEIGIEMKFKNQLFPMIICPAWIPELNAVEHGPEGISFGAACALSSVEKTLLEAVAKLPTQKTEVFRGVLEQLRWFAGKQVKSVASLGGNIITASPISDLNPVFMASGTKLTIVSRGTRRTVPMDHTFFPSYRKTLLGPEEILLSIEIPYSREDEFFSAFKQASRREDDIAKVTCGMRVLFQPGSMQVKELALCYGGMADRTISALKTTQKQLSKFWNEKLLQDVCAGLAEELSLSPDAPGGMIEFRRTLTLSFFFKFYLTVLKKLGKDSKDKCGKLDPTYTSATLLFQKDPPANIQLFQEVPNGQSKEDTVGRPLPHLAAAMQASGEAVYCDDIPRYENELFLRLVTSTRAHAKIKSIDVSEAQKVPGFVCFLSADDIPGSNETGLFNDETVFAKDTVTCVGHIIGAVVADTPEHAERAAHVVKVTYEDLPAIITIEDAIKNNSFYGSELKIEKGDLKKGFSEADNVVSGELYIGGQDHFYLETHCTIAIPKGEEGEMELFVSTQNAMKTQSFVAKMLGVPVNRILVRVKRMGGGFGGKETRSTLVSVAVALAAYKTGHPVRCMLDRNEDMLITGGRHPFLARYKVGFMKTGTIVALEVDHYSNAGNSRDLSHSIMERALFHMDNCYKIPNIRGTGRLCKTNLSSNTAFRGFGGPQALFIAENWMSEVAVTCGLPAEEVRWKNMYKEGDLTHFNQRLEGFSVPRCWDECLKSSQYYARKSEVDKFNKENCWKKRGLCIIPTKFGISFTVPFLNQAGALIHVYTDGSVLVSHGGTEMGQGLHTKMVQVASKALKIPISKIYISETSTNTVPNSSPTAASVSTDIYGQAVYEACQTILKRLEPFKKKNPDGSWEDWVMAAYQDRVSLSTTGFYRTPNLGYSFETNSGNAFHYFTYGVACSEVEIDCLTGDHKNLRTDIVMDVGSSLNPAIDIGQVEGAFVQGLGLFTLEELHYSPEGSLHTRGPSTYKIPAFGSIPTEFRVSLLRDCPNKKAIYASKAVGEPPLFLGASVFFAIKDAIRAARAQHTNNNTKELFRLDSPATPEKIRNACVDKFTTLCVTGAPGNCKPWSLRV

SMILES | pIC50 [1] | inhibition at 100 µM (human URAT1) [%]
N#Cc1cc(-c2cc(C(=O)O)ccn2)cc2ccccc12 [Example 1, 2-(4-Cyanonaphthalene-2-yl)isonicotinic acid] | 7.96 | 
N#Cc1cc(-c2cc(C(=O)O)c(O)cn2)cc2ccccc12 [Example 2, 2-(4-Cyanonaphthalene-2-yl)-5-hydroxyisonicotinic acid] | 7.89 | > 80
N#Cc1cc(-c2ccc(C(=O)O)cc2)cc2ccccc12 [Example 4, 4-(4-Cyanonaphthalene-2-yl)benzoic acid] | 7.70 | 
N#Cc1cc(-c2ccc(C(=O)O)cc2)nc2ccccc12 [Example 5, 4-(4-Cyanoquinoline-2-yl)benzoic acid] | 7.09 | 
N#Cc1cc(-c2ccc(C(=O)O)c(O)c2)nc2ccccc12 [Example 6, 4-(4-Cyanoquinoline-2-yl)-2-hydroxy-benzoic acid] | 8.10 | > 80
Cc1nc(-c2cc(C#N)c3ccccc3c2)sc1C(=O)O [Example 7, 2-(4-Cyanonaphthalene-2-yl)-4-methylthiazole-5-carboxylic acid] | 8.15 | > 80
Cc1ccc2cc(-c3nc(C)c(C(=O)O)s3)cc(C#N)c2c1 [Example 8, 2-(4-Cyano-6-methylnaphthalene-2-yl)-4-methylthiazole-5-carboxylic acid] | 7.96 | 
Cc1ccc2c(C#N)cc(-c3nc(C)c(C(=O)O)s3)cc2c1 [Example 9] | 7.59 | 
Cc1nc(-c2cc(C#N)c3ccc(F)cc3c2)sc1C(=O)O [Example 12] | 8.40 | > 80
Cc1nc(-c2cc(C#N)c3cccc(F)c3c2)sc1C(=O)O [Example 13] | 8.10 | > 80
Cc1nc(-c2cc(C#N)c3c(C)ccc(F)c3c2)sc1C(=O)O [Example 15] | 8.15 | > 80
Cc1nc(-c2cc(C#N)c3c(F)cccc3c2)sc1C(=O)O [Example 22] | 8.15 | > 80
N#Cc1cc(-c2ncc(C(=O)O)s2)cc2ccccc12 [Example 31] | 8.70 | > 80
